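Method: 48-hour compound exposure of cells in 96-well plates, five concentrations, linear interpolation of endpoints. Definition used: TGI = concentration required for complete inhibition of growth.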

Assay in all cases: NCI tumour cell line growth inhibition, 48 h
Experiment [1] has as its system DU-145 prostate.
Experiment [2] concerns HCC-2998 colon.
Experiment [3] concerns HOP-62 NSCLC.
In experiment [4] the test system is KM12 colon.
Experiment [5] deals with MALME-3M melanoma.
Experiment [6] has as its system MDA-N.
Experiment [7] deals with NCI-H522 lung.
Experiment [8] concerns OVCAR-8 ovarian.
Experiment [9] has as its system SF-268 CNS.
In experiment [10] the test system is SN12C renal.

For the compound `FC1=C2C3CCC(C3)C2C1(F)F` (stereo not given), the TGI in [1], in [2], in experiment [3], in experiment [4], in experiment [5] and in experiment [6] was greater than 100 µM throughout. Further, the TGI in experiment [7], in experiment [8], in [9] and in experiment [10] was greater than 100 µM throughout.
For `N#Cc1nc(CCc2nc(C#N)c(N)o2)oc1N`, the TGI in experiment [1], in experiment [2], in experiment [3], in experiment [4], in [5] and in [6] was greater than 10 µM in each case. Besides, the TGI in experiment [7], in [8], in experiment [9] and in [10] was greater than 10 µM in each case.
As to `COc1cc2c(cc1O)C1Cc3ccc(OC)c(O)c3C[N+]1(C)CC2` (stereo not given), the TGI in [1], in [2], in [3], in experiment [4], in experiment [5] and in [6] was greater than 100 µM each time. Moreover, the TGI in [8], in [9] and in experiment [10] was greater than 100 µM throughout.
Turning to `COC(=O)c1sc(=O)sc1SCc1cccc(CSc2sc(=O)sc2C(=O)OC)c1`, the TGI is greater than 100 µM in [1]; greater than 100 µM in experiment [2]; 35.7 µM in [3]; greater than 100 µM in experiment [4]; 49.5 µM in [5]; greater than 100 µM in experiment [6]. For the same compound, the TGI was greater than 100 µM in experiment [7], greater than 100 µM in experiment [8], 86.1 µM in experiment [9] and greater than 100 µM in [10].
For the compound `CC(C)(CO[C@H]1C[C@H]2CC[C@@]1(C)C2(C)C)[N+](=O)[O-]`, the TGI is 49.2 µM in experiment [1]; 5.19 µM in experiment [2]; 38.4 µM in experiment [3]; 32.4 µM in [4]; 40.3 µM in experiment [5]; 29.4 µM in experiment [6]. The TGI in experiment [7] was 40.5 µM; in [8], 56.8 µM; in experiment [9], greater than 100 µM; in experiment [10], greater than 100 µM.
`C=C(NC(=O)C(=C)NC(=O)c1ccc2c(n1)-c1coc(n1)C(=C)NC(=O)C(=C)NC(=O)c1nc(oc1C)C(=C)NC(=O)C(C(C)(C)O)NC(=O)C(=C)NC(=O)c1coc(n1)/C(=C/C)NC(=O)[C@H]([C@@H](C)O)NC(=O)c1csc-2n1)C(N)=O` (stereo not given in full): the TGI in experiment [1], in experiment [2], in [3], in [4], in experiment [5] and in experiment [6] was greater than 87.5 µM in each case. Further, the TGI in experiment [7], in [8], in experiment [9] and in experiment [10] was greater than 87.5 µM in each case.
As to `O=C1[C@@H]2[C@@H](CN3CN(c4ccccc4)N=C(c4ccccc4)[C@@]23c2ccccc2)C(=O)N1c1ccccc1`, the TGI is 24.7 µM in experiment [1]; greater than 100 µM in experiment [2]; 30 µM in experiment [3]; greater than 75.5 µM in [4]; 3.57 µM in experiment [5]; 20.1 µM in [6]. Besides, the TGI in experiment [7] amounted to 1.13 µM; in experiment [8], 13.9 µM; in experiment [9], 47.1 µM; in experiment [10], 18.4 µM.
Regarding `O=C(O)C(Cc1ccccc1)NCc1c(O)ccc2c(-c3ccccc3)cc(=O)oc12` (stereo not given), the TGI in experiment [1], in experiment [2], in experiment [3], in experiment [4], in experiment [5] and in [6] was greater than 100 µM each time. Also, the TGI in experiment [7], in experiment [8], in experiment [9] and in experiment [10] was greater than 100 µM throughout.
In the case of `C=C(C)C1CC(=O)C(C)=C(O)C1` (stereo not given), the TGI in experiment [1], in [2], in experiment [3], in experiment [4], in experiment [5] and in experiment [6] was greater than 100 µM in each case. Also, the TGI in experiment [7], in experiment [8], in experiment [9] and in experiment [10] was greater than 100 µM each time.
For the compound `COC(=O)[C@]1(c2cc3ccccc3n2S(=O)(=O)c2ccccc2)CC2CN(C(=O)OCc3ccccc3)C1C1OC(C)(C)OC21` (stereo not given in full), the TGI in experiment [1], in experiment [2], in experiment [3], in experiment [4], in experiment [5] and in experiment [6] was greater than 100 µM throughout. In addition, the TGI in experiment [7], in experiment [8] and in experiment [10] was greater than 100 µM throughout.
Take `C[C@]12CC[C@H]3[C@@H](CC=C4C[C@@H](N5CCCC5)CC[C@@]43C)[C@@H]1C[C@H](N1CCCCC1)[C@@H]2O`: the TGI in [1], in [2], in [3], in experiment [4], in [5] and in [6] was greater than 100 µM in each case. In addition, the TGI in [7], in experiment [8], in experiment [9] and in experiment [10] was greater than 100 µM in each case.
Consider `CC(=O)CC1(CBr)Nc2ccc([N+](=O)[O-])cc2NC1=O` (stereo not given), for which the TGI in experiment [1], in [2], in experiment [3], in [4], in experiment [5] and in [6] was greater than 100 µM in each case. In addition, the TGI is 41.6 µM in experiment [7], greater than 100 µM in experiment [8], greater than 100 µM in [9] and greater than 100 µM in experiment [10].
As for `C/C(=N\Nc1nc2ccccc2s1)c1ccncn1`, the TGI in experiment [1] is greater than 66.1 µM; in experiment [2], greater than 41.9 µM; in [3], greater than 36.3 µM; in experiment [4], 16.6 µM; in [5], 20.3 µM; in [6], greater than 100 µM. The TGI stood at 2.05 µM in [7], 1.03 µM in experiment [8], 9.56 µM in experiment [9] and 18 µM in experiment [10].
With `O=C(O)c1c(CC(Cc2ccc3c(c2)CCC3)C(=O)O)ccc2c1CCC2` (stereo not given), the TGI in experiment [1], in experiment [2], in [3], in experiment [4], in experiment [5] and in experiment [6] was greater than 100 µM in each case. The TGI in experiment [7], in experiment [8] and in experiment [10] was greater than 100 µM in each case.
Regarding `COC(=O)c1c2c(cc3c1CC1(Cc4cc5c(c(C=O)c4C1)CCC5)C3)CCC2` (stereo not given), the TGI is greater than 100 µM in experiment [1]; 95.2 µM in experiment [2]; greater than 100 µM in experiment [3]; 61.7 µM in experiment [5]; greater than 100 µM in [6]; 56.6 µM in experiment [7]. The TGI in experiment [8] and in experiment [9] was greater than 100 µM in each case.
As for `O=c1[nH]c(=O)n(COC(CO)CO)cc1-c1ccccc1`, the TGI in [1], in experiment [2], in [3], in [4], in [5] and in experiment [6] was greater than 100 µM each time. For the same compound, the TGI in [7], in experiment [8], in experiment [9] and in experiment [10] was greater than 100 µM each time.
`COc1ccc(N2C(=O)C3c4[nH]c5c(C)cccc5c4C4CCC(C(C)C)CC4C3C2=O)cc1` (stereo not given): the TGI is 31.2 µM in [1]; 28.8 µM in experiment [2]; 22.7 µM in experiment [3]; 19.9 µM in [4]; 36.8 µM in [5]; 29.2 µM in experiment [6]. Besides, the TGI turned out to be 27.2 µM in experiment [7], 42.9 µM in experiment [8], 22 µM in experiment [9] and 98 µM in [10].
As for `COc1cc(CCNC2=CC(=O)c3nc[nH]c3C2=O)ccc1O`, the TGI is 34.6 µM in [1]; 43 µM in experiment [2]; greater than 100 µM in experiment [3]; 82.2 µM in [4]; 26.1 µM in [5]; 32.5 µM in [6]. The TGI was 62.3 µM in [7], 47.6 µM in experiment [8], greater than 100 µM in [9] and greater than 100 µM in experiment [10].
For `CC(=O)n1[nH]c(=O)n(-c2ccc(Cl)cc2)c1=O`, the TGI in experiment [1], in experiment [2], in [3], in experiment [4], in experiment [5] and in experiment [6] was greater than 100 µM throughout. Besides, the TGI in [7], in experiment [8], in experiment [9] and in [10] was greater than 100 µM each time.
On to `CC1OC(OC2C(O[C@H]3CC[C@@]4(C)C(=CC[C@H]5[C@@H]6C[C@@H]7O[C@]8(CC[C@@H](C)CO8)[C@@H](C)[C@@H]7[C@@]6(C)CC[C@@H]54)C3)OC(CO)C(O)C2OC2OC(CO)C(O)C(O)C2O)C(O)C(O)C1O` (stereo not given in full), for which the TGI in experiment [1] worked out at 4.09 µM; in [2] it was 3.34 µM; in experiment [3], 4.21 µM; in experiment [4], 4.49 µM; in [5], 3.26 µM; in experiment [6] it was 3.17 µM. For the same compound, the TGI is 3.42 µM in experiment [7], greater than 100 µM in experiment [8] and 3.7 µM in [9].
Turning to `O=C(CNc1ccccc1C(=O)O)Nn1cnc2ccc(S(=O)(=O)Nc3ccccc3C(=O)O)cc2c1=O`, the TGI in [1], in experiment [2], in experiment [3], in experiment [4], in [5] and in experiment [6] was greater than 100 µM in each case. Also, the TGI in experiment [7], in experiment [8], in experiment [9] and in [10] was greater than 100 µM throughout.
Consider `COc1cc2c[n+]3c4c(c2c(OC)c1OC)CCCC4CC3` (stereo not given), for which the TGI in [1] was greater than 100 µM; in experiment [2], greater than 100 µM; in experiment [3], greater than 100 µM; in experiment [4] it was greater than 100 µM; in experiment [5] it was 46.9 µM; in experiment [6], greater than 100 µM. In experiment [7], this compound gave a TGI greater than 100 µM.
On to `COc1ccc(-c2ccc(C(=O)C=P(c3ccccc3)(c3ccccc3)c3ccccc3)cc2)cc1`, for which the TGI in experiment [1] is 39.4 µM; in experiment [2], 15.2 µM; in experiment [3], 43.9 µM; in experiment [4], 36.6 µM; in experiment [5], 43.9 µM; in experiment [6] it was 28.9 µM. Further, the TGI came out at 71.4 µM in [9] and 28.5 µM in experiment [10].
For `O=[N+]([O-])c1ccc(-n2nc3ccc4nonc4c3n2)cc1`, the TGI in experiment [1] is greater than 100 µM; in [2] it was greater than 100 µM; in experiment [3], 44.7 µM; in experiment [4], greater than 100 µM; in [5], 89.2 µM; in experiment [6], greater than 100 µM. In addition, the TGI in experiment [7], in experiment [9] and in [10] was greater than 100 µM in each case.
Regarding `N#CCCC(C=O)(CCC#N)CCC#N`, the TGI in [1], in [2], in [4], in [5], in [6] and in experiment [7] was greater than 100 µM in each case. The TGI in [8], in experiment [9] and in experiment [10] was greater than 100 µM throughout.
As to `CCCCCC[C@H]([C@H](C)O)n1cnc2c(N)ncnc21`, the TGI in experiment [1], in experiment [2], in [3], in experiment [4], in experiment [5] and in experiment [6] was greater than 100 µM in each case. In addition, the TGI in [8], in [9] and in [10] was greater than 100 µM throughout.
In the case of `Cc1c(C)c2c(c(N)c1C#N)C(=O)N(N)C2=O`, the TGI in experiment [1], in experiment [2], in experiment [4], in [5], in experiment [6] and in [7] was greater than 100 µM throughout. The TGI in [8], in [9] and in experiment [10] was greater than 100 µM throughout.
